# Source: US8541572B2
# pIC50: −log10 of the molar value.
# System: TNF-α production in LPS-stimulated human whole blood
# Assay: Inhibition of TNF-α production from human whole blood (hWBA)
# Type: cell-based
# Details: Homo sapiens, IC50 for TNF-α production, LPS-stimulated human whole blood; read-out: hWBA
row,SMILES,pIC50
1,COc1ccc2c(c1)C(=O)N(C[C@]1(C#Cc3ccc(C(=O)NS(C)(=O)=O)nc3)NC(=O)NC1=O)C2 [Compound 901],6.00
2,COc1ccc2c(c1)C(=O)N(C[C@@]1(C#Cc3ccc(C(=O)NS(C)(=O)=O)nc3)NC(=O)NC1=O)C2 [Compound 902],5.86
3,COc1ccc2c(c1)C(=O)N(C[C@@]1(C#Cc3ccc(C4(C5CCC5)NC(=O)NC4=O)cc3)NC(=O)NC1=O)C2 (some centres unmarked) [Compound 906],6.42
4,COc1ccc2c(c1)C(=O)N(C[C@@]1(C#Cc3ccc4oc(C5(C)NC(=O)NC5=O)cc4c3)NC(=O)NC1=O)C2 (some centres unmarked) [Compound 909],6.53
5,CCN1CCN(C(=NO)c2ccc(C#C[C@]3(CN4Cc5ccc(OC)cc5C4=O)NC(=O)NC3=O)cc2)CC1 [Compound 911],7.70
6,COc1ccc2c(c1)C(=O)N(C[C@@]1(C#Cc3cccc(C(=NO)N4CCOCC4)c3)NC(=O)NC1=O)C2 [Compound 916],6.56
7,CCN1CCN(C(=NO)c2cncc(C#C[C@]3(CN4Cc5ccc(OC)cc5C4=O)NC(=O)NC3=O)c2)CC1 [Compound 923],6.36

# Results, then the molecule that gave them:
row,pIC50,SMILES
1,6.82,COc1ccc2c(c1)C(=O)N(C[C@@]1(C#Cc3ccc(C(=NO)N4CCN(C5CCCCCC5)CC4)cc3)NC(=O)NC1=O)C2 [Compound 927]
2,6.56,COc1ccc2c(c1)C(=O)N(C[C@@]1(C#Cc3ccc(C(=NO)N4CCN(c5ccccc5)CC4)cc3)NC(=O)NC1=O)C2 [Compound 928]
3,5.45,COc1ccc2c(c1)C(=O)N(C[C@@]1(C#Cc3ccc4c(c3)C(C)Oc3cccnc3-4)NC(=O)NC1=O)C2 (some centres unmarked) [Compound 929]
4,7.19,COc1ccc2c(c1)C(=O)N(C[C@@]1(C#Cc3ccc(C(=NO)N4CCN(C)CC4)cc3)NC(=O)NC1=O)C2 [Compound 943]
5,6.81,COc1ccc2c(c1)C(=O)N(C[C@@]1(C#Cc3ccc(C(=NO)N4CCCCC4)cc3)NC(=O)NC1=O)C2 [Compound 946]

# Same assay, conditions: Homo sapiens, IC50 for inhibition of TNF-α production, LPS-stimulated human whole blood; read-out: hWBA
row,pIC50,SMILES
1,6.19,CSc1ccc2c(c1)C(=O)N(C[C@@]1(C#Cc3cccnc3)NC(=O)NC1=O)C2 [Compound 312]
2,6.35,CCN1CCN(C(=O)c2ccc(C#C[C@]3(CN4Cc5ccc(OC)cc5C4=O)NC(=O)NC3=O)cc2)CC1 [Compound 960]
3,6.40,COc1ccc2c(c1)C(=O)N(C[C@@]1(C#Cc3ccc(C(=O)N4CCC(N5CCCCC5)CC4)cc3)NC(=O)NC1=O)C2 [Compound 963]
4,6.19,COc1ccc2c(c1)C(=O)N(C[C@@]1(C#Cc3ccc(-c4ccccc4O)cc3)NC(=O)NC1=O)C2 [Compound 969]

# Same assay, conditions: IC50 for TNF-α production, LPS-stimulated human whole blood; read-out: hWBA
row,SMILES,pIC50
1,C#C[C@]1(CN2Cc3ccc(OC)c(F)c3C2=O)NC(=O)NC1=O [Compound 23],6.08
2,COc1ccc2c(c1)C(=O)N(C[C@]1(C#Cc3cnc(N)c(C(=O)O)c3)NC(=O)NC1=O)C2 [Compound 903],6.00
3,COc1ccc2c(c1)C(=O)N(C[C@@]1(C#Cc3cnc(N)c(C(=O)NS(C)(=O)=O)c3)NC(=O)NC1=O)C2 [Compound 904],5.00
4,COc1ccc2c(c1)C(=O)N(C[C@]1(C#Cc3ccc(C(=O)O)s3)NC(=O)NC1=O)C2 [Compound 905],5.00
5,COc1ccc2c(c1)C(=O)N(C[C@@]1(C#Cc3ccc(C4(C)NC(=O)NC4=O)s3)NC(=O)NC1=O)C2 (some centres unmarked) [Compound 907],6.68
6,COc1ccc2c(c1)C(=O)N(C[C@@]1(C#Cc3csc(C4(C)NC(=O)NC4=O)c3)NC(=O)NC1=O)C2 (some centres unmarked) [Compound 908],6.27
7,COc1ccc2c(c1)C(=O)N(C[C@@]1(C#Cc3ccc4oc(C5(C)NC(=O)NC5=O)c(C)c4c3)NC(=O)NC1=O)C2 (some centres unmarked) [Compound 910],6.26
8,COc1ccc2c(c1)C(=O)N(C[C@@]1(C#Cc3ccc(C(=NO)N4CCSCC4)cc3)NC(=O)NC1=O)C2 [Compound 912],6.82
9,COc1ccc2c(c1)C(=O)N(C[C@@]1(C#Cc3ccc(C(=NO)N4CCCN(C)CC4)cc3)NC(=O)NC1=O)C2 [Compound 913],7.35
10,COc1ccc2c(c1)C(=O)N(C[C@@]1(C#Cc3ccc(C(=NO)N4CCC4)cc3)NC(=O)NC1=O)C2 [Compound 914],6.73
11,COc1ccc2c(c1)C(=O)N(C[C@@]1(C#Cc3cccc(C(=NO)N4CCN(C)CC4)c3)NC(=O)NC1=O)C2 [Compound 915],6.66
12,COc1ccc2c(c1)C(=O)N(C[C@@]1(C#Cc3ccc(C(=NO)N4CCN(C5CC5)CC4)cc3)NC(=O)NC1=O)C2 [Compound 922],7.04
13,COc1ccc2c(c1)C(=O)N(C[C@@]1(C#Cc3cncc(C(=NO)N4CCCN(C)CC4)c3)NC(=O)NC1=O)C2 [Compound 924],5.88
14,CCCCN1CCN(C(=NO)c2ccc(C#C[C@]3(CN4Cc5ccc(OC)cc5C4=O)NC(=O)NC3=O)cc2)CC1 [Compound 925],7.13

# Results, then the molecule that gave them:
row,pIC50,SMILES
1,7.12,COc1ccc2c(c1)C(=O)N(C[C@@]1(C#Cc3ccc(C(=NO)N4CCN(C5CCCCC5)CC4)cc3)NC(=O)NC1=O)C2 [Compound 926]
2,6.30,CCN1CCN(C(CO)c2ccc(C#C[C@]3(CN4Cc5ccc(OC)cc5C4=O)NC(=O)NC3=O)cc2)CC1 (some centres unmarked) [Compound 930]
3,7.33,COc1ccc2c(c1)C(=O)N(C[C@@]1(C#Cc3ccc(C(=NO)N4CCCN(C(C)C)CC4)cc3)NC(=O)NC1=O)C2 [Compound 931]
4,6.93,COc1ccc2c(c1)C(=O)N(C[C@@]1(C#Cc3ccc(-c4ncccc4O)cc3)NC(=O)NC1=O)C2 [Compound 934]
5,5.91,COc1ccc2c(c1)C(=O)N(C[C@@]1(C#Cc3ccc(/C=N\Nc4ccccc4)cc3)NC(=O)NC1=O)C2 [Compound 935]
6,7.14,CCN1CCN(c2ccc(O)c(-c3ccc(C#C[C@]4(CN5Cc6ccc(OC)cc6C5=O)NC(=O)NC4=O)cc3)n2)CC1 [Compound 936]
7,6.19,COc1ccc2c(c1)C(=O)N(C[C@@]1(C#Cc3ccc(C(=NO)N4CCCC4)cc3)NC(=O)NC1=O)C2 [Compound 942]
8,7.07,COc1ccc2c(c1)C(=O)N(C[C@@]1(C#Cc3ccc(C(=NO)N4CCC(=O)CC4)cc3)NC(=O)NC1=O)C2 [Compound 945]
9,6.66,COc1ccc2c(c1)C(=O)N(C[C@@]1(C#Cc3ccc(C(=NO)N4CCN(C)CC4)s3)NC(=O)NC1=O)C2 [Compound 951]
10,6.24,COc1ccc2c(c1)C(=O)N(C[C@@]1(C#Cc3ccc(C(=NO)N4CCOCC4)s3)NC(=O)NC1=O)C2 [Compound 952]
11,7.06,COc1ccc2c(c1)C(=O)N(C[C@@]1(C#Cc3ccc(C(=NO)N4CCN(C)CC4)nc3)NC(=O)NC1=O)C2 [Compound 953]
12,7.06,CCN1CCN(C(=NO)c2ccc(C#C[C@]3(CN4Cc5ccc(OC)cc5C4=O)NC(=O)NC3=O)cn2)CC1 [Compound 954]
13,6.19,COc1ccc2c(c1)C(=O)N(C[C@@]1(C#Cc3ccc(-c4ccccc4O)cc3)NC(=O)NC1=O)C2 [Compound 955]

# Same assay, conditions: IC50 for inhibition of TNF-α production, LPS-stimulated human whole blood; read-out: hWBA
row,SMILES,pIC50
1,COc1ccc2c(c1F)C(=O)N(C[C@@]1(C#Cc3ccc4c(=O)[nH][nH]c4c3)NC(=O)NC1=O)C2 [Compound 301],6.65
2,COc1ccc2c(c1)C(=O)N(C[C@@]1(C#Cc3cc(F)c4c(O)n[nH]c4c3)NC(=O)NC1=O)C2 [Compound 302],6.14
3,COc1ccc2c(c1F)C(=O)N(C[C@@]1(C#Cc3ccc4c(c3)CN(C)C(=O)N4)NC(=O)NC1=O)C2 [Compound 307],6.55
4,COc1ccc2c(c1)C(=O)N(C[C@@]1(C#Cc3ccc4c(c3)c(N)nn4CCN(C)C)NC(=O)NC1=O)C2 [Compound 705],7.00
5,COc1ccc2c(c1)C(=O)N(C[C@@]1(C#Cc3ccc4c(c3)c(O)nn4C)NC(=O)NC1=O)C2 [Compound 712],5.82
6,COc1ccc2c(c1)C(=O)N(C[C@@]1(C#Cc3ccc4c(O)nn(C)c4c3)NC(=O)NC1=O)C2 [Compound 715],6.34
7,COc1ccc2c(c1)C(=O)N(C[C@@]1(C#Cc3ccc4c(CN(C)C)n[nH]c4c3)NC(=O)NC1=O)C2 [Compound 728],6.79
8,COc1ccc2c(c1)C(=O)N(C[C@@]1(C#Cc3ccc4c(-c5ccncc5)n[nH]c4c3)NC(=O)NC1=O)C2 [Compound 734],6.00
9,COc1ccc2c(c1)C(=O)N(C[C@@]1(C#Cc3ccc(CC4CCN(C)CC4)nc3)NC(=O)NC1=O)C2 [Compound 739],6.71
10,COc1ccc2c(c1)C(=O)N(C[C@@]1(C#Cc3ccc(-c4cc(N)[nH]n4)cc3)NC(=O)NC1=O)C2 [Compound 747],6.89
11,COc1ccc2c(c1)C(=O)N(C[C@@]1(C#Cc3ccc4c(O)n[nH]c4c3)NC(=O)NC1=O)C2 [Compound 748],6.81

# Next, values leading:
row,pIC50,SMILES
1,5.94,COc1ccc2c(c1)C(=O)N(C[C@@]1(C#Cc3ccc(C(=O)N4CCN(C5CC5)CC4)cc3)NC(=O)NC1=O)C2 [Compound 961]
2,6.24,COc1ccc2c(c1)C(=O)N(C[C@@]1(C#Cc3ccc(C(=O)N4CCN(C5CCCCC5)CC4)cc3)NC(=O)NC1=O)C2 [Compound 962]
3,6.51,CCN1CCN(C(=O)c2ccc(C#C[C@]3(CN4Cc5ccc(OC)c(F)c5C4=O)NC(=O)NC3=O)cc2)CC1 [Compound 964]
4,6.16,COc1ccc2c(c1F)C(=O)N(C[C@@]1(C#Cc3ccc(CN4CCOCC4)nc3)NC(=O)NC1=O)C2 [Compound 965]
5,6.23,COc1ccc2c(c1F)C(=O)N(C[C@@]1(C#Cc3ccc(CN4CCSCC4)nc3)NC(=O)NC1=O)C2 [Compound 966]
6,6.11,COc1ccc2c(c1F)C(=O)N(C[C@@]1(C#Cc3ccc(CN4CCCCC4)nc3)NC(=O)NC1=O)C2 [Compound 967]
7,5.30,COc1ccc2c(c1F)C(=O)N(C[C@@]1(C#Cc3ccc(CN4CCc5ccc(F)cc5C4)nc3)NC(=O)NC1=O)C2 [Compound 968]
8,7.19,COc1ccc2c(c1)C(=O)N(C[C@@]1(C#Cc3ccc(-c4nc(-c5ccncc5)ccc4O)cc3)NC(=O)NC1=O)C2 [Compound 970]
9,7.10,COc1ccc2c(c1)C(=O)N(C[C@@]1(C#Cc3ccc(-c4nc(-c5cccnc5)ccc4O)cc3)NC(=O)NC1=O)C2 [Compound 971]
10,6.24,CCN1CCN(c2ccc(OC)c(-c3ccc(C#C[C@]4(CN5Cc6ccc(OC)cc6C5=O)NC(=O)NC4=O)cc3)n2)CC1 [Compound 972]
11,7.21,COc1ccc2c(c1)C(=O)N(C[C@@]1(C#Cc3ccc(-c4nc(-c5cnn(C)c5)ccc4O)cc3)NC(=O)NC1=O)C2 [Compound 973]
